In paper PMC2735267 (Neuropharmacology, 2009):
Read-outs that look alike come from different tables or passages of the source.

Tests used:
[1] = molecular target: β4*-nAChR (Mus musculus, UniProt Q8R493+Q8R4G9); assay: biochemical; format: binding, C57BL/6J mice; conditions: read-out: [125I]epibatidine (β2 -/-) Ki; inferior colliculi, β2-/- mice; 200 pM ligand
[2] = molecular target: α7-nAChR (Mus musculus, UniProt P49582); assay: biochemical; format: binding, C57BL/6J mice; conditions: read-out: [125I]α-bungarotoxin (WT) Ki; […]; 0.5 nM ligand; one-site model
Sequence of α7-nAChR (P49582 23-502): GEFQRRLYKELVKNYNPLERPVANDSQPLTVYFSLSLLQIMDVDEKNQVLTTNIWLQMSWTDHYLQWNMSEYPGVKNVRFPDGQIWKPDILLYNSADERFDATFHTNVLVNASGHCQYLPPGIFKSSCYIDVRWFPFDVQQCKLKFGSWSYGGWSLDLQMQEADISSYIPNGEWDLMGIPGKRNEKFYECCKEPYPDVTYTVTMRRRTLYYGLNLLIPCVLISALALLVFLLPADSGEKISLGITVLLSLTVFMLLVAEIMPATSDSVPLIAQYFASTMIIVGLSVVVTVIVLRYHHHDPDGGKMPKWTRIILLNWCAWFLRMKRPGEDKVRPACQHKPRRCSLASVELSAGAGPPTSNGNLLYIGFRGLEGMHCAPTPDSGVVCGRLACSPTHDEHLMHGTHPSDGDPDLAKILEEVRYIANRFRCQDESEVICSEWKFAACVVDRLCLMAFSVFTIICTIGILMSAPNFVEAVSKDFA

[3] = test system: [125I]epibatidine binding sites (β2*- and β4*-nAChR); parameters: species or system C57BL/6J mice; conditions: inferior colliculus, wild-type
[4] = test system: A85380-resistant [125I]epibatidine binding sites (mainly α3β4* nAChR); conditions: membranes; 0.2 mg/kg/h iv 7 days
[5] = molecular target: β2*-nAChR (Mus musculus, UniProt O70174+Q9ERK7); assay: biochemical; format: binding, C57BL/6J mice; conditions: read-out: [125I]epibatidine (β4 -/-) Ki; inferior colliculi, β4-/- mice; 200 pM ligand
Sequence of β2*-nAChR (O70174 31-629): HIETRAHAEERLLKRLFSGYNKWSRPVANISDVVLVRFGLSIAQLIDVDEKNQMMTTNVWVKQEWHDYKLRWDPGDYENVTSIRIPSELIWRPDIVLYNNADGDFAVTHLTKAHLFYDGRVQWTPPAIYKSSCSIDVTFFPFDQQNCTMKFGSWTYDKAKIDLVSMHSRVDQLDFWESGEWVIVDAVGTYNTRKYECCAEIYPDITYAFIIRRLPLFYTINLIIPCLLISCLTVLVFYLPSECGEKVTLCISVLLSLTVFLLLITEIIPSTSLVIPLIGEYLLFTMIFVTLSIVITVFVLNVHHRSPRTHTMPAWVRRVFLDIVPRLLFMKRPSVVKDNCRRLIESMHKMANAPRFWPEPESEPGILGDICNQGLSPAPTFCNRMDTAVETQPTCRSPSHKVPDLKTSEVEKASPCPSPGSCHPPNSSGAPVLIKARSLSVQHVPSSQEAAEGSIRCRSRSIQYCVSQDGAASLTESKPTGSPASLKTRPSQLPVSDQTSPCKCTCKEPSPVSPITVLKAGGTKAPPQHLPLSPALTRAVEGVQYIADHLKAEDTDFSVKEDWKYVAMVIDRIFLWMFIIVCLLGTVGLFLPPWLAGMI
Sequence of β2*-nAChR (Q9ERK7 26-501): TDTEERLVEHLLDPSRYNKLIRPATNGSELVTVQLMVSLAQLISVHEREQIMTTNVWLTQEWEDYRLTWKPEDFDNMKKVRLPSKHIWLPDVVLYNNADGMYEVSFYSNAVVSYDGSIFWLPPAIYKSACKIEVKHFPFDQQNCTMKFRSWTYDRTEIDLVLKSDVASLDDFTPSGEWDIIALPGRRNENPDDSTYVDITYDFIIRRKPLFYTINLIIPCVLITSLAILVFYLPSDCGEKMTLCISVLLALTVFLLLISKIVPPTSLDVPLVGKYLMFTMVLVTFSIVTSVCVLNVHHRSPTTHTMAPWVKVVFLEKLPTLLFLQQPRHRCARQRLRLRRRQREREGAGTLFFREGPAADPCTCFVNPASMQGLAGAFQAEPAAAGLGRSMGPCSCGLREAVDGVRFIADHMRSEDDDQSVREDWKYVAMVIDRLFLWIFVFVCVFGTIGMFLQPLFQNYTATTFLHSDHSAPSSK

[6] = test system: DBA/2J mice; assay: 3-IC-induced hypothermia; format: in vivo, mouse
[7] = test system: cytisine-resistant [125I]epibatidine binding sites; conditions: for Cytisine-resistant [125I]epibatidine binding: 3-IC 0.2 mg/kg/h iv 7 days; for Cytisine-resistant [125I]epibatidine binding % change: 3-IC 0.2 mg/kg/h iv 7 days vs saline
[8] = test system: DBA/2J mice; assay: Chronic intravenous 3-IC infusion and tolerance test; format: in vivo, mouse
[9] = test system: [3H]dopamine release; conditions: read-out: EC50 [3H]dopamine release; rat striatal synaptosomes; ref Abin-Carriquiry et al., 2006; cited from earlier work
[10] = dorsolateral geniculate nucleus
[11] = superior colliculus (optic nerve)
[12] = superior colliculus (sup. gray)

Sequence of β4*-nAChR (Q8R493 21-495): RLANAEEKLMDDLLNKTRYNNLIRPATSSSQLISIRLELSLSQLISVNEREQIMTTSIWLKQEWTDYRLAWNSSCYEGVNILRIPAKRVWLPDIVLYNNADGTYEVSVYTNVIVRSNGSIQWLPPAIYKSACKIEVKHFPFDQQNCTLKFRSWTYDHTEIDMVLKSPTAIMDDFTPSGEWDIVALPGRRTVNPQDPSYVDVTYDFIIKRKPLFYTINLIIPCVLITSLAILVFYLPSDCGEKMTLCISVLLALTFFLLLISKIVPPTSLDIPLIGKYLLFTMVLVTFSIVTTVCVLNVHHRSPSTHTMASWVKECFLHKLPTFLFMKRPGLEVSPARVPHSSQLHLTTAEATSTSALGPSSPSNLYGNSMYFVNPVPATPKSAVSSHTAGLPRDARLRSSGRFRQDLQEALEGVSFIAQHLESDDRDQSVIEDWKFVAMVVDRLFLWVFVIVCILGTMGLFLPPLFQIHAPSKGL
Sequence of β4*-nAChR (Q8R4G9 26-499): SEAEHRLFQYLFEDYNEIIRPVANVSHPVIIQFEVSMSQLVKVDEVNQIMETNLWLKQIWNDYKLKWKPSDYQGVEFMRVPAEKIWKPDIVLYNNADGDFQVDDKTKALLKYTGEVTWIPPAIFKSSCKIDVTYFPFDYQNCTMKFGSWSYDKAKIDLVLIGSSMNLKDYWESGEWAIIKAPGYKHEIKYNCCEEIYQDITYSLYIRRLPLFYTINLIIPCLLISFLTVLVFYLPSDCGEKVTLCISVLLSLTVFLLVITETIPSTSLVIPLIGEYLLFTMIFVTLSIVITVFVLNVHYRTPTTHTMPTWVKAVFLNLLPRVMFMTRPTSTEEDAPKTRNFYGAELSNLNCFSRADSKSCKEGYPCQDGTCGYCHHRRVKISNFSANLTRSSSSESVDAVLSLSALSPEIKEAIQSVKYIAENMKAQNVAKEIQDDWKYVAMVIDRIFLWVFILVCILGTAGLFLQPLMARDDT

Q: What does the source list for `O=c1c(I)ccc2n1C[C@@H]1CNC[C@H]2C1` [3-IC, 3-iodocytisine]?
A: Ki [1]: 0.25 ± 0.04 nM; Ki [2]: 2.2 ± 1.2 nM; difference in affinity for the two [125I]epibatidine binding sites [3]: 1.6 fold; A85380 resistant component of [125I]epibatidine binding [4]: unmodified; Ki [5]: 0.128 ± 0.003 nM; decrease of basal temperature ([6]; 0.2 mg/kg ip acute, DBA/2J): 7.7 ± 0.5 °C; tremors or diarrhea ([6]; 0.2 mg/kg ip, DBA/2J and C57BL/6J): without inducing tremors or diarrhea; maximal temperature decrease ([6]; 1 mg/kg ip, DBA/2J): 11.9 ± 0.4 °C; time of maximal hypothermia after 3-IC injection, saline pretreated ([6]; 3-IC 0.2 mg/kg, DBA/2J): 40 min; seizures ([6]; any dose tested (0.05-1 mg/kg ip), DBA/2J and C57BL/6J): no seizures were noted; maximal 3-IC-induced hypothermia after saline pretreatment ([6]; hexamethonium experiment, 3-IC 0.2 mg/kg, DBA/2J): 8.10 ± 0.63 °; doses at which tremors were seen ([6]; ip acute, DBA/2J and C57BL/6J): above 0.5 mg/kg; ED50 for hypothermia ([6]; ip, DBA/2J, maximal drop in temperature): 0.15 ± 0.04 mg/kg; 3-IC-induced hypothermia after saline pretreatment ([6]; mecamylamine experiment, 3-IC 0.2 mg/kg ip, DBA/2J): 8.50 ± 0.42 °C; Cytisine-resistant [125I]epibatidine binding ([7]; anterior olfactory nucleus): 13.27 ± 2.48 fmol/mg; Cytisine-resistant [125I]epibatidine binding ([7]; anteromedial thalamic nucleus): 3.97 ± 0.25 fmol/mg; Cytisine-resistant [125I]epibatidine binding % change ([7]; anteromedial thalamic nucleus): 22.0%; cytisine-resistant [125I]epibatidine sites after chronic treatment ([7]; autoradiography, 0.2 mg/kg/h iv 7 days): not affected; Cytisine-resistant [125I]epibatidine binding ([7]; caudate putamen): 2.39 ± 0.29 fmol/mg; Cytisine-resistant [125I]epibatidine binding % change ([7]; caudate putamen): 18.2%; Cytisine-resistant [125I]epibatidine binding ([7]; cingulate cortex): 1.25 ± 0.13 fmol/mg; Cytisine-resistant [125I]epibatidine binding % change ([7]; cingulate cortex): 26.9%; Cytisine-resistant [125I]epibatidine binding ([7]; dentate gyrus (granular layer)): 1.15 ± 0.06 fmol/mg; Cytisine-resistant [125I]epibatidine binding % change ([7]; dentate gyrus (granular layer)): 17.3%; Cytisine-resistant [125I]epibatidine binding [7, 10]: 9.89 ± 0.66 fmol/mg; Cytisine-resistant [125I]epibatidine binding % change [7, 10]: -2.8%; Cytisine-resistant [125I]epibatidine binding ([7]; dorsomedial thalamic nucleus): 3.78 ± 0.50 fmol/mg; Cytisine-resistant [125I]epibatidine binding % change ([7]; dorsomedial thalamic nucleus): 5.3%; Cytisine-resistant [125I]epibatidine binding ([7]; fasciculus retroflexus): 63.47 ± 4.86 fmol/mg; Cytisine-resistant [125I]epibatidine binding % change ([7]; fasciculus retroflexus): 3.1%; Cytisine-resistant [125I]epibatidine binding ([7]; hippocampus (CA1-3)): 0.98 ± 0.06 fmol/mg; Cytisine-resistant [125I]epibatidine binding % change ([7]; hippocampus (CA1-3)): 20.2%; Cytisine-resistant [125I]epibatidine binding ([7]; inferior colliculus (central)): 4.00 ± 1.42 fmol/mg; Cytisine-resistant [125I]epibatidine binding % change ([7]; inferior colliculus (central)): 68.2%; Cytisine-resistant [125I]epibatidine binding ([7]; inferior colliculus (dorsal)): 10.17 ± 2.62 fmol/mg; Cytisine-resistant [125I]epibatidine binding % change ([7]; inferior colliculus (dorsal)): 67.7%; Cytisine-resistant [125I]epibatidine binding ([7]; inferior colliculus (external)): 2.55 ± 0.19 fmol/mg; Cytisine-resistant [125I]epibatidine binding % change ([7]; inferior colliculus (external)): 24.2%; Cytisine-resistant [125I]epibatidine binding ([7]; interpeduncular nucleus): 211.95 ± 31.83 fmol/mg; Cytisine-resistant [125I]epibatidine binding ([7]; medial geniculate nucleus): 4.43 ± 0.80 fmol/mg; Cytisine-resistant [125I]epibatidine binding % change ([7]; medial geniculate nucleus): 38.1%; Cytisine-resistant [125I]epibatidine binding ([7]; medial habenula): 282.84 ± 31.53 fmol/mg; Cytisine-resistant [125I]epibatidine binding % change ([7]; medial habenula): -13.5%; Cytisine-resistant [125I]epibatidine binding ([7]; nucleus accumbens): 1.95 ± 0.21 fmol/mg; Cytisine-resistant [125I]epibatidine binding % change ([7]; nucleus accumbens): 12.9%; Cytisine-resistant [125I]epibatidine binding ([7]; olfactory tubercle): 2.9 ± 0.5 fmol/mg; Cytisine-resistant [125I]epibatidine binding % change ([7]; olfactory tubercle): -17.1%; Cytisine-resistant [125I]epibatidine binding ([7]; optic tract): 1.75 ± 0.22 fmol/mg; Cytisine-resistant [125I]epibatidine binding % change ([7]; optic tract): 26.1%; Cytisine-resistant [125I]epibatidine binding ([7]; parietal cortex (layers 1-3)): 0.62 ± 0.06 fmol/mg; Cytisine-resistant [125I]epibatidine binding % change ([7]; parietal cortex (layers 1-3)): 24.6%; Cytisine-resistant [125I]epibatidine binding ([7]; parietal cortex (layers 4-6)): 1.29 ± 0.07 fmol/mg; Cytisine-resistant [125I]epibatidine binding % change ([7]; parietal cortex (layers 4-6)): 45.9%; Cytisine-resistant [125I]epibatidine binding ([7]; retrosplenial Cortex): 1.63 ± 0.11 fmol/mg; Cytisine-resistant [125I]epibatidine binding % change ([7]; retrosplenial Cortex): 35.8%; Cytisine-resistant [125I]epibatidine binding ([7]; subiculum): 1.89 ± 0.10 fmol/mg; Cytisine-resistant [125I]epibatidine binding ([7]; substantia nigra): 1.6 ± 0.2 fmol/mg; Cytisine-resistant [125I]epibatidine binding % change ([7]; substantia nigra): 6.7%; Cytisine-resistant [125I]epibatidine binding [7, 11]: 3.21 ± 0.14 fmol/mg; Cytisine-resistant [125I]epibatidine binding % change [7, 11]: 0.5%; Cytisine-resistant [125I]epibatidine binding [7, 12]: 11.25 ± 0.12 fmol/mg; Cytisine-resistant [125I]epibatidine binding % change [7, 12]: 10.8%; Cytisine-resistant [125I]epibatidine binding ([7]; ventral tegmental area): 3.4 ± 0.69 fmol/mg; Cytisine-resistant [125I]epibatidine binding % change ([7]; ventral tegmental area): 20.5%; Cytisine-resistant [125I]epibatidine binding ([7]; ventromedial thalamic nucleus): 3.29 ± 0.46 fmol/mg; Cytisine-resistant [125I]epibatidine binding % change ([7]; ventromedial thalamic nucleus): 13.4%; Cytisine-resistant [125I]epibatidine binding ([7]; zona incerta): 2.34 ± 0.22 fmol/mg; tolerance after chronic infusion ([8]; 0.2 mg/kg/h iv 7 days): did not elicit tolerance; decrease of body temperature during infusion ([8]; after 24 hours of continuous intravenous infusion of 0.5 mg/kg/h): 13 ± 0.3 °C; infusion doses that elicited tremors ([8]; continuous intravenous infusion): higher than 0.2 mg/kg/h; EC50 [9]: 11 nM
